# Results as given in PubChem BioAssay AID330 (DTP/NCI, 2004).
# Values joined by “and” are separate entries in the source; they are usually repeats but may differ in a detail not shown here. Equal values may be shown once. Toxic doses and inconclusive results are not listed.
# Tested on: P388 leukemia ip, CD2F1 mice, survival T/C
# Assay: NCI In Vivo Anticancer Drug Screen. Data for tumor model P388 Leukemia (intraperitoneal) in CD2F1 (CDF1) mice
# Conditions: endpoint: median survival time, higher = longer survival
# How it was run: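 Mice carrying the transplanted tumor received test compound or vehicle. Survival was recorded in each group, and the value is the treated-group measurement divided by that of the vehicle-treated control group.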
# [1] = dose: 50.0 mg/kg/injection, schedule: Q01DX009 (ip), vehicle: saline with Tween-80
# [2] = dose: 100.0 mg/kg/injection, schedule: Q01DX009 (ip), vehicle: saline with Tween-80
# [3] = dose: 200.0 mg/kg/injection, schedule: Q01DX009 (ip), vehicle: saline with Tween-80
# [4] = dose: 1.56 mg/kg/injection, schedule: Q01DX005 (ip), vehicle: Klucel (hydroxypropylcellulose) (HPC)
# [5] = dose: 3.12 mg/kg/injection, schedule: Q01DX005 (ip), vehicle: Klucel (hydroxypropylcellulose) (HPC)
# [6] = dose: 3.13 mg/kg/injection, schedule: Q01DX009 (ip), vehicle: saline with Tween-80
# [7] = dose: 6.25 mg/kg/injection, schedule: Q01DX009 (ip), vehicle: saline with Tween-80
# [8] = dose: 12.5 mg/kg/injection, schedule: Q01DX009 (ip), vehicle: saline with Tween-80
# [9] = dose: 25.0 mg/kg/injection, schedule: Q01DX009 (ip), vehicle: saline with Tween-80
# [10] = dose: 50.0 mg/kg/injection, schedule: Q01DX009 (ip), vehicle: saline
# [11] = dose: 200.0 mg/kg/injection, schedule: Q01DX009 (ip), vehicle: saline
# [12] = dose: 100.0 mg/kg/injection, schedule: Q01DX009 (ip), vehicle: saline
# [13] = dose: 60.0 mg/kg/injection, schedule: Q01DX005 (ip), vehicle: Klucel (hydroxypropylcellulose) (HPC)
# [14] = dose: 120.0 mg/kg/injection, schedule: Q01DX005 (ip), vehicle: Klucel (hydroxypropylcellulose) (HPC)
# [15] = dose: 240.0 mg/kg/injection, schedule: Q01DX005 (ip), vehicle: Klucel (hydroxypropylcellulose) (HPC)
structure (smiles),measurement,setting,value
O=C(/C=C/c1ccccc1)c1ccccc1O,T/C,[1],96 % of control
same,T/C,[2],104 % of control
same,T/C,[3],101 % of control
CCOC(C#CC(=O)C(C)C)OCC,T/C,"dose: 60.0 mg/kg/injection, schedule: Q01DX005 (ip), vehicle: saline",101 % of control
same,T/C,"dose: 120.0 mg/kg/injection, schedule: Q01DX005 (ip), vehicle: saline",98 % of control
same,T/C,"dose: 240.0 mg/kg/injection, schedule: Q01DX005 (ip), vehicle: saline",101 % of control
O=C(NCc1ccco1)C(=O)N/N=C/c1ccccc1O,T/C,[1],89 % of control
same,T/C,[2],92 % of control
same,T/C,[3],92 % of control
COc1ccc(/C=C/C(=O)C(CN(C)C)CN(C)C)cc1OC,T/C,"dose: 0.78 mg/kg/injection, schedule: Q01DX005 (ip), vehicle: Klucel (hydroxypropylcellulose) (HPC)",106 % of control
same,T/C,[4],102 % of control
same,T/C,[5],104 % of control
CC(=O)OC(C)C1C2=C(C(=O)CC1(C)O)C(=O)c1c(ccc(-c3ccc4c(c3O)C(=O)C3=C(C4=O)C(C(C)OC(C)=O)C(C)(O)CC3=O)c1O)C2=O (stereo not drawn),T/C,[6],122 % of control
same,T/C,[7],119 % of control
O=NN(CCCl)C(=O)Nc1c[nH]c(=O)[nH]c1=O,T/C,"dose: 0.01 mg/kg/injection, schedule: Q04DX003 (ip), vehicle: saline with Tween-80",95 % of control
same,T/C,"dose: 0.02 mg/kg/injection, schedule: Q04DX003 (ip), vehicle: saline with Tween-80",100 % of control
same,T/C,"dose: 0.04 mg/kg/injection, schedule: Q04DX003 (ip), vehicle: saline with Tween-80",100 % of control
same,T/C,"dose: 0.5 mg/kg/injection, schedule: Q04DX003 (ip), vehicle: saline",150 % of control
same,T/C,"dose: 1.0 mg/kg/injection, schedule: Q04DX003 (ip), vehicle: saline",159 % of control
same,T/C,"dose: 2.0 mg/kg/injection, schedule: Q04DX003 (ip), vehicle: saline",172 % of control
same,T/C,"dose: 3.0 mg/kg/injection, schedule: Q04DX003 (ip), vehicle: saline with Tween-80",195 % of control
same,T/C,[6],227 % of control
same,T/C,"dose: 6.0 mg/kg/injection, schedule: Q04DX003 (ip), vehicle: saline with Tween-80",213 % of control
same,T/C,[7],227 % of control
same,T/C,"dose: 8.0 mg/kg/injection, schedule: Q04DX003 (ip), vehicle: saline with Tween-80",191 % of control
same,T/C,"dose: 12.0 mg/kg/injection, schedule: Q04DX003 (ip), vehicle: saline with Tween-80",166 % of control
same,T/C,[8],109 % of control
same,T/C,"dose: 12.5 mg/kg/injection, schedule: Q04DX003 (ip), vehicle: saline with Tween-80",219 % of control
same,T/C,"dose: 18.0 mg/kg/injection, schedule: Q04DX003 (ip), vehicle: saline with Tween-80",191 % of control
same,T/C,"dose: 30.0 mg/kg/injection, schedule: Q01DX009 (ip), vehicle: saline with Tween-80",100 % of control
OC1CC2CC1C1C3C=CC(C3)C21 (stereo not drawn),T/C,[7],104 % of control
same,T/C,[8],102 % of control
same,T/C,[9],102 % of control
O=C1C(NCC(O)CO)=C(N2CC2)C(=O)C(NCC(O)CO)=C1N1CC1 (stereo not drawn),T/C,"dose: 1.5 mg/kg/injection, schedule: Q01DX009 (ip), vehicle: saline",198 % of control
same,T/C,"dose: 3.0 mg/kg/injection, schedule: Q01DX009 (ip), vehicle: saline",227 % of control
same,T/C,"dose: 4.0 mg/kg/injection, schedule: Q01DX009 (ip), vehicle: saline",270 % of control
O=C(Nc1ncc([N+](=O)[O-])s1)c1cccnc1,T/C,"dose: 3.12 mg/kg/injection, schedule: Q01DX009 (ip), vehicle: suspension in saline",101 % of control
same,T/C,"dose: 6.25 mg/kg/injection, schedule: Q01DX009 (ip), vehicle: suspension in saline",87 % of control
same,T/C,"dose: 12.5 mg/kg/injection, schedule: Q01DX009 (ip), vehicle: saline",91 % of control
same,T/C,"dose: 12.5 mg/kg/injection, schedule: Q01DX009 (ip), vehicle: suspension in saline",87 % of control
same,T/C,[10],100 % of control
same,T/C,[11],88 % of control
COc1cc(/C=C2\SC(=S)N(C3CC3)C2=O)ccc1O,T/C,[10],97 % of control
same,T/C,[12],107 % of control
same,T/C,[11],104 % of control and 91 % of control
CSC(C)(C(=N)C#N)N(C)C (stereo not drawn),T/C,"dose: 12.5 mg/kg/injection, schedule: Q04DX003 (ip), vehicle: saline",103 % of control
same,T/C,"dose: 25.0 mg/kg/injection, schedule: Q04DX003 (ip), vehicle: saline",100 % of control
same,T/C,"dose: 50.0 mg/kg/injection, schedule: Q04DX003 (ip), vehicle: saline",104 % of control
COc1ccc(C2c3cc4c(cc3OC3(N5CCCC5)CCCCC23)OCO4)cc1 (stereo not drawn),T/C,[13],99 % of control
same,T/C,[14],94 % of control
same,T/C,[15],88 % of control
O=S1(=O)C2CCC(Br)C1CCC2Br (stereo not drawn),T/C,[4],99 % of control
same,T/C,[5],103 % of control
same,T/C,"dose: 6.25 mg/kg/injection, schedule: Q01DX005 (ip), vehicle: Klucel (hydroxypropylcellulose) (HPC)",100 % of control
CC(C)(C)OP(=S)(OC(C)(C)C)OC(C)(C)C,T/C,"dose: 100.0 mg/kg/injection, schedule: Q04DX002 (ip), vehicle: saline with Tween-80",96 % of control
same,T/C,"dose: 200.0 mg/kg/injection, schedule: Q04DX002 (ip), vehicle: saline with Tween-80",108 % of control
same,T/C,"dose: 400.0 mg/kg/injection, schedule: Q04DX002 (ip), vehicle: saline with Tween-80",106 % of control
O=C1CCCCCCCCCCC1C(O)(C(F)(F)F)C(F)(F)F (stereo not drawn),T/C,"dose: 100.0 mg/kg/injection, schedule: Q04DX003 (ip), vehicle: saline with Tween-80",100 % of control
same,T/C,"dose: 200.0 mg/kg/injection, schedule: Q04DX003 (ip), vehicle: saline with Tween-80",90 % of control
same,T/C,"dose: 400.0 mg/kg/injection, schedule: Q04DX003 (ip), vehicle: saline with Tween-80",100 % of control
O=c1c2ccccc2ncn1C12CC3CC(CC(C3)C1)C2,T/C,"dose: 100.0 mg/kg/injection, schedule: Q04DX002 (ip), vehicle: Klucel (hydroxypropylcellulose) (HPC)",105 % of control
same,T/C,"dose: 200.0 mg/kg/injection, schedule: Q04DX002 (ip), vehicle: Klucel (hydroxypropylcellulose) (HPC)",100 % of control
same,T/C,"dose: 400.0 mg/kg/injection, schedule: Q04DX002 (ip), vehicle: Klucel (hydroxypropylcellulose) (HPC)",100 % of control
CC(=O)c1oc(C)nc1C,T/C,[10],104 % of control
same,T/C,[12],100 % of control
same,T/C,[11],104 % of control
O=C(O)C(S)C(S)C(=O)O (stereo not drawn),T/C,"dose: 12.5 mg/kg/injection, schedule: Q01DX009 (ip), vehicle: other",102 % of control
same,T/C,"dose: 25.0 mg/kg/injection, schedule: Q01DX009 (ip), vehicle: other",108 % of control
same,T/C,"dose: 50.0 mg/kg/injection, schedule: Q01DX009 (ip), vehicle: other",103 % of control
same,T/C,"dose: 100.0 mg/kg/injection, schedule: Q01DX009 (ip), vehicle: other",94 % of control
same,T/C,"dose: 200.0 mg/kg/injection, schedule: Q01DX009 (ip), vehicle: other",90 % of control
O=C1c2ccsc2C(=O)c2ccsc21,T/C,[8],101 % of control
same,T/C,[9],105 % of control
same,T/C,[1],101 % of control
same,T/C,[2],99 % of control
CC(C)SC=O,T/C,"dose: 50.0 mg/kg/injection, schedule: Q01DX009 (ip), vehicle: Klucel (hydroxypropylcellulose) (HPC)",100 % of control
same,T/C,"dose: 100.0 mg/kg/injection, schedule: Q01DX009 (ip), vehicle: Klucel (hydroxypropylcellulose) (HPC)",107 % of control
same,T/C,"dose: 200.0 mg/kg/injection, schedule: Q01DX009 (ip), vehicle: Klucel (hydroxypropylcellulose) (HPC)",106 % of control
Nc1[nH]c(=S)[nH]c(=O)c1NS(=O)(=O)c1ccccc1[N+](=O)[O-],T/C,"dose: 30.0 mg/kg/injection, schedule: Q01DX005 (ip), vehicle: Klucel (hydroxypropylcellulose) (HPC)",100 % of control and 94 % of control
same,T/C,[13],98 % of control and 100 % of control
same,T/C,[14],100 % of control and 97 % of control
same,T/C,[15],100 % of control
CCN(CC)c1ccc2cc(C(=O)c3cccs3)c(=O)oc2c1,T/C,"dose: 60.0 mg/kg/injection, schedule: Q01DX005 (ip), vehicle: saline with Tween-80",104 % of control
same,T/C,"dose: 120.0 mg/kg/injection, schedule: Q01DX005 (ip), vehicle: saline with Tween-80",96 % of control
same,T/C,"dose: 240.0 mg/kg/injection, schedule: Q01DX005 (ip), vehicle: saline with Tween-80",103 % of control
CSCNC(=O)Nc1ccccc1,T/C,"dose: 50.0 mg/kg/injection, schedule: Q01DX005 (ip), vehicle: saline with Tween-80",98 % of control
same,T/C,"dose: 100.0 mg/kg/injection, schedule: Q01DX005 (ip), vehicle: saline with Tween-80",100 % of control
same,T/C,"dose: 200.0 mg/kg/injection, schedule: Q01DX005 (ip), vehicle: saline with Tween-80",104 % of control
